Laboratory results published in patent US20190125727A1, “FIXED DOSE COMBINATION FOR PAIN RELIEF WITHOUT EDEMA” (Marina Biotech, Inc., priority 2014, published 2019).
Values joined by “and” are separate entries in the source; they are usually repeats but may differ in a detail not shown here. Equal entries are not always repeated. One block for each compound: values may come before it.

Experiments:
[1] = Table 1 of CELEBREX Package Insert; cited from earlier work
[2] = Incidence of edema in SYMPHONY claims / ACC registry database; format: in vivo, human
Text: To support this study a database was created which contains: 1) Claims data from SYMPHONY DATABASE® pertaining to anti-hypertensives, Statins, COX-2's, and NSAIDS. The data span the most recent 36 months and 2) registry data from the ACC reporting Blood Pressure (systolic/diastolic), peripheral edema flags (yes, no, missing), Heart rate, LDL, Glucose Level, Ejection fraction, GFR, Height, Weight, BJVII, and the like.
SYMPHONY DATABASE® contains true patient level data—All Data Sources be it RX or JVIX claims is tied back to individual patients which is tracked and then encrypted based on first name, last name, gender, DOB and zip code to give an accurate picture of patient level informatics year over year regardless of insurance changes.
The properties for the SYMPHONY DATABASE® are: 1) Takes CELEBREX® antihypertensive, AH, Statin or NSAID or have OA, RA or some other form of arthritis, 36 months, 2) Time Frame=Jan. 1, 2012-Dec. 31, 2014 (3 years), 3) Number of files=201, 4) Size=561 GB zipped (−2.5 TB), 5) Unique Patients=162 million, 6) Patients on CELEBREX®=4.3 million, 7) Patients that have OA=16.3 million (15.4 million only OA), 8) Patients that have RA=2.3 million (1.4 million only RA).
The properties of the ACC registry are: 1) Have 3+BP readings, 2) Time Frame=Jan. 1, 2012-Dec. 31, 2014 (3 years), 3) Number of files=2, 4) Size=590 MB, 51 MB, 5) Unique Patients=1.58 million, 6) Patients with BP readings=1.58 million, 7) Patients with Edema Flag True=870 K.
The edema rate was then measured in the aforementioned database. The incidence of edema was higher for OA patients than RA, other Arthritis, or Arthritis free patients. […] Overall OA seems to be susceptible to CELEBREX® induced edema. The results confirmed the meta-analysis shown above. […]

[3] = Celecoxib AUC from combined published pharmacokinetic data
[4] = Applicant's meta-analysis of reported edema rates in osteoarthritic populations by celecoxib dose; conditions: 400 mg/day
clinical = conditions: human, in vivo, oral, 200 mg
[5] = Moore et al., cited from earlier work
[6] = no arthritis patients with CELEBREX
[7] = other arthritis patients with CELEBREX

Structure (SMILES): CC(C)Cc1ccc(C(C)C(=O)O)cc1 (centres unmarked) [ibuprofen]
patients treated that develop edema [1]: 3.5%

AUC Max. ([3]; 100 mg): 3.418 µg·h/mL
AUC Med. ([3]; 100 mg): 3.395 µg·h/mL
AUC Min. ([3]; 100 mg): 2.465 µg·h/mL
AUC Max. ([3]; 200 mg): 6.791 µg·h/mL
AUC Min. ([3]; 200 mg): 5.972 µg·h/mL
edema event rate (upper limit and average) versus 100 or 200 mg/day dose [4]: more than twice as high
AUC (clinical): 6.44 µg·h/mL
Structure (SMILES): Cc1ccc(-c2cc(C(F)(F)F)nn2-c2ccc(S(N)(=O)=O)cc2)cc1 [celecoxib]
incidence of edema ([2]; Days of Therapy 60-120): (18.1%)
incidence of edema ([2]; Days of Therapy 120-180): (19.3%)
incidence of edema ([2]; Days of Therapy 180-240): (21.6%)
incidence of edema ([2]; Days of Therapy <60): (19.4%)
incidence of edema ([2]; Days of Therapy >240): (26.7%)
cases of edema (%), OA ([2]; OA patients with CELEBREX): (6.0%)
cases of edema, OA ([2]; OA patients with CELEBREX): 254
cases of edema (%), RA ([2]; RA patients with CELEBREX): (3.3%)
cases of edema, RA ([2]; RA patients with CELEBREX): 82
cases of edema (%), No Arthritis [2, 6]: (0.4%)
cases of edema, No Arthritis [2, 6]: 451
cases of edema (%), Other Arthritis [2, 7]: (4.1%)
cases of edema, Other Arthritis [2, 7]: 1702
patients treated that develop edema [1]: 2.1%
incidence of edema at any site, usual ([5]; clinical trials of celecoxib): about 3%
incidence of edema in two trials ([5]; two trials): 23% and 38%

Structure (SMILES): COc1ccc2cc([C@H](C)C(=O)O)ccc2c1 [naproxen]
patients treated that develop edema [1]: 2.1%

Structure (SMILES): O=C(O)Cc1ccccc1Nc1c(Cl)cccc1Cl [diclofenac]
patients treated that develop edema [1]: 1.0%
